Experimental data: ChEMBL document CHEMBL1201862, “PubChem BioAssay data set” (2004)
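1) Cells in 96-well plates. 2) Compound, 48 h, 5 concentrations. 3) Linear interpolation between surrounding doses. 4) Unreached endpoint = highest concentration. GI50: concentration for 50% inhibition of growth.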 Active and inactive are the calls of the source. Cut-off read from the data, not from the text of the source: active = GI50 up to about 1.1 µM and inactive = higher.

How the values were obtained:
Experiment in all cases: NCI tumour cell line growth inhibition, 48 h
Hs-578T = test system: Hs-578T
SK-MEL-5 = test system: SK-MEL-5
BT-549 = test system: BT-549
A549 = test system: A549
M14 = test system: M14
SF-268 = test system: SF-268
NCI-H23 = test system: NCI-H23
KM12 = test system: KM12
U-251 = test system: U-251
ACHN = test system: ACHN
HCT-15 = test system: HCT-15
TK-10 = test system: TK-10
Malme-3M = test system: Malme-3M
MDA-MB-435 = test system: MDA-MB-435
LOX IMVI = test system: LOX IMVI
NCI-H460 = test system: NCI-H460
COLO 205 = test system: COLO 205
SN12C = test system: SN12C
CCRF-CEM = test system: CCRF-CEM
SK-OV-3 = test system: SK-OV-3
OVCAR-8 = test system: OVCAR-8
UO-31 = test system: UO-31
A498 = test system: A498
MDA-N = test system: MDA-N
RPMI-8226 = test system: RPMI-8226
RXF 393 = test system: RXF 393
CAKI-1 = test system: CAKI-1
OVCAR-3 = test system: OVCAR-3
NCI-H226 = test system: NCI-H226
HOP-62 = test system: HOP-62
SW-620 = test system: SW-620
OVCAR-5 = test system: OVCAR-5
HCC 2998 = test system: HCC 2998
T47D = test system: T47D
MOLT-4 = test system: MOLT-4
K562 = test system: K562
IGROV-1 = test system: IGROV-1
HOP-92 = test system: HOP-92
MCF7 = test system: MCF7
PC-3 = test system: PC-3
NCI-H522 = test system: NCI-H522
SR = test system: SR
MDA-MB-231 = test system: MDA-MB-231
SK-MEL-28 = test system: SK-MEL-28
786-0 = test system: 786-0
EKVX = test system: EKVX
SNB-75 = test system: SNB-75
SF-539 = test system: SF-539
SF-295 = test system: SF-295
NCI/ADR-RES = test system: NCI/ADR-RES
SK-MEL-2 = test system: SK-MEL-2
OVCAR-4 = test system: OVCAR-4
HT-29 = test system: HT-29
UACC-62 = test system: UACC-62
DU-145 = test system: DU-145
HCT-116 = test system: HCT-116
UACC-257 = test system: UACC-257
SNB-19 = test system: SNB-19

Measured: GI50

O=[N+]([O-])c1ccc(NN=C2c3ccccc3Cc3ccccc32)c([N+](=O)[O-])c1
6.43 µM: HCT-15
inactive: Hs-578T 4.07 µM | SK-MEL-5 4.27 µM | BT-549 > 100 µM | A549 > 21.1 µM | M14 5.81 µM | SF-268 14.3 µM | NCI-H23 15 µM | KM12 2.98 µM | U-251 4.5 µM | ACHN 17.7 µM | TK-10 > 100 µM | Malme-3M 3.39 µM | MDA-MB-435 1.79 µM | LOX IMVI 7.87 µM | NCI-H460 3.91 µM | COLO 205 4.52 µM | SN12C > 67.5 µM | CCRF-CEM 3.1 µM | SK-OV-3 7.74 µM | OVCAR-8 45.8 µM | UO-31 > 26.4 µM | A498 > 92 µM | MDA-N 1.88 µM | RPMI-8226 8.91 µM | RXF 393 > 24.4 µM | CAKI-1 9.51 µM | OVCAR-3 2.39 µM | NCI-H226 29.6 µM | HOP-62 6.92 µM | SW-620 5.85 µM | OVCAR-5 12.3 µM | HCC 2998 6.41 µM | T47D 35.8 µM | MOLT-4 6.87 µM | K562 4.32 µM | IGROV-1 4.97 µM | HOP-92 20.8 µM | MCF7 4.23 µM | PC-3 4.95 µM | NCI-H522 2.13 µM | SR 2.07 µM | MDA-MB-231 24.4 µM | SK-MEL-28 > 81.1 µM | 786-0 10.9 µM | EKVX 5.37 µM | SNB-75 4.59 µM | SF-539 8.79 µM | SF-295 3.71 µM | NCI/ADR-RES 4.82 µM | SK-MEL-2 3.44 µM | OVCAR-4 13.3 µM | HT-29 2.88 µM | UACC-62 5.38 µM | DU-145 > 30.4 µM | HCT-116 5.37 µM | UACC-257 6.35 µM

Oc1nc2c(c(-c3ccc(F)cc3)n1)COC/C2=C\c1ccc(F)cc1
> 100 µM: HCT-15
inactive: Hs-578T > 100 µM | SK-MEL-5 > 100 µM | BT-549 > 100 µM | M14 > 100 µM | SF-268 > 100 µM | NCI-H23 > 100 µM | KM12 > 100 µM | U-251 > 100 µM | ACHN > 100 µM | TK-10 > 100 µM | MDA-MB-435 > 100 µM | LOX IMVI > 100 µM | NCI-H460 > 100 µM | COLO 205 > 100 µM | SN12C > 100 µM | CCRF-CEM > 100 µM | SK-OV-3 > 100 µM | SNB-19 > 100 µM | OVCAR-8 > 100 µM | UO-31 > 100 µM | A498 > 100 µM | MDA-N > 100 µM | RPMI-8226 > 100 µM | RXF 393 > 100 µM | CAKI-1 > 100 µM | OVCAR-3 > 100 µM | NCI-H226 > 100 µM | HOP-62 > 100 µM | SW-620 > 100 µM | OVCAR-5 > 100 µM | HCC 2998 > 100 µM | T47D > 100 µM | MOLT-4 > 100 µM | K562 > 100 µM | IGROV-1 > 100 µM | HOP-92 > 100 µM | MCF7 > 100 µM | PC-3 > 100 µM | NCI-H522 > 100 µM | SR > 100 µM | MDA-MB-231 > 100 µM | 786-0 > 100 µM | EKVX > 100 µM | SNB-75 > 100 µM | SF-539 > 100 µM | SF-295 > 100 µM | NCI/ADR-RES > 100 µM | SK-MEL-2 > 100 µM | OVCAR-4 > 100 µM | UACC-62 > 100 µM | DU-145 > 100 µM | HCT-116 > 100 µM | UACC-257 > 100 µM

O=c1[nH]nc(Cc2ccccc2)n1/N=C/c1ccccc1Cl
> 100 µM: HCT-15
inactive: Hs-578T 43.4 µM | SK-MEL-5 > 100 µM | BT-549 > 100 µM | A549 > 100 µM | SF-268 > 100 µM | NCI-H23 > 100 µM | KM12 > 100 µM | U-251 53.1 µM | ACHN > 100 µM | TK-10 > 100 µM | Malme-3M > 100 µM | MDA-MB-435 > 100 µM | LOX IMVI > 100 µM | NCI-H460 > 100 µM | COLO 205 > 100 µM | SN12C > 100 µM | SK-OV-3 > 100 µM | SNB-19 > 100 µM | OVCAR-8 > 100 µM | UO-31 > 100 µM | A498 > 100 µM | MDA-N > 100 µM | RPMI-8226 > 100 µM | RXF 393 3.56 µM | CAKI-1 > 100 µM | OVCAR-3 > 100 µM | NCI-H226 > 100 µM | SW-620 > 100 µM | OVCAR-5 > 100 µM | HCC 2998 > 100 µM | T47D > 100 µM | MOLT-4 > 100 µM | K562 > 100 µM | IGROV-1 > 100 µM | HOP-92 95.9 µM | MCF7 > 100 µM | PC-3 > 100 µM | NCI-H522 > 100 µM | SR > 100 µM | MDA-MB-231 > 100 µM | 786-0 41.1 µM | EKVX > 100 µM | SF-539 > 100 µM | SF-295 52.2 µM | NCI/ADR-RES > 100 µM | SK-MEL-2 > 100 µM | OVCAR-4 > 100 µM | HT-29 > 100 µM | UACC-62 > 100 µM | DU-145 > 100 µM | HCT-116 > 100 µM | UACC-257 > 100 µM
